Results taken from patent US20070142433A1, “Angiogenesis-affecting compounds and methods of use thereof” (priority 2004, published 2007).
Structures can show the parent of a compound that is named as a salt.

Tests used:
[1] = test system: HUVEC sprouting; assay: Primary angiogenesis screen, HUVEC spheroid evaluation (EC sprouting); type: cell-based, human; settings: HUVEC spheroids in collagen gel, VEGF-supplemented, 24 hours
Experimental: A test substance was selected for evaluation in angiogenesis screens. The test substance was synthesized or obtained as appropriate and stored at −20° C. in DMSO. Prior to use, the test substance was thawed and 5 mM of the substance was diluted to a 10 fold concentrated working solution (100 μM) in endothelial cell basal medium. The basal medium fraction was supplemented with 25 ng VEGF/100 μl for the stimulation of HUVEC sprouting.
The screening procedures were modified versions of those described by Korff and Augustin (J Cell Sci 112: 3249-58, 1999). By way of summary, spheroids were prepared by pipetting 400 human umbilical vein endothelial cells (HUVEC) into each well of nonadhesive 96-well plates. Prior to use the HUVEC were cultured according to the supplier's instructions (PromoCell, Heidelberg, Germany). The cells were allowed to aggregate overnight into spheroids (Korff and Augustin: J Cell Biol 143: 1341-52, 1998). After aggregation, 48 HUVEC spheriods were harvested. Each harvested spheroid was seeded in 900 μl of methocel-collagen solution and pipetted into an individual well of a 24-well plate to allow collagen gel polymerization.
(§1) Thirty (30) minutes after seeding, the test substance was added. The working dilution (10 fold concentration) was utilized, 100 μl was pipetted on top of the polymerized collagen gel in each well. The plates were then incubated at 37° C. for 24 hours. At the end of the incubation period the plates were fixed by adding 1 ml paraformaldehyde (10%) to each well.
The HUVEC spheriods were microscopically assayed for endothelial cell (EC) sprouting intensity. The degree of EC sprouting was classified into one of four groups by comparing the degree of sprouting to that observed in VEGF control cells. […] For exemplary results, see FIG. 1.

[2] = test system: NHDF (human dermal fibroblasts) scattering; assay: NHDF spheroid evaluation (fibroblast scattering); type: cell-based; settings: NHDF spheroids in collagen gel, no supplements, 24 hours
Experimental: Where the test compound was classified as an inhibitor or stimulator, a second screening process was performed. In the second screen, the test substance was thawed and 5 mM of the substance was diluted to a 10 fold concentrated working solution (100 μM) in endothelial cell basal medium. No supplements were used in the basal medium.
Instead of HUVEC, spheroids were prepared by pipetting 400 human dermal fibroblasts (NHDF) into each well of nonadhesive 96-well plates. Prior to use the NHDF were cultured according to the supplier's instructions (PromoCell, Heidelberg, Germany). The cells were allowed to aggregate overnight into spheroids (Korff and Augustin: J Cell Biol 143: 1341-52, 1998). After aggregation, 48 NHDF spheroids were harvested. Each of the harvested spheroids was seeded in 900 μl of methocel-collagen solution and pipetted into an individual well of a 24-well plate to allow collagen gel polymerization.
as §1
The NHDF spheroids were microscopically assayed for fibroblast scattering intensity. […] For exemplary results, see FIG. 1.

[3] = test system: HUVEC; assay: Cell proliferation assay (crystal violet), HUVEC; type: cell-based; settings: Homo sapiens, 72 hours, OD 595 nm
Experimental: In order to further confirm the surprising results described above, the compounds were tested in a cell proliferation assay. Crystal violet was used to measure cell proliferation; this basic dye stains cell nuclei and provides a sensitive, rapid evaluation. Light absorption of unstained or destained cell layers is negligible, making it possible to perform cell number measurements in wells.
Six cell types (HUVEC, HDMEC, SMC, Fibroblast, A375 and RENCA) were plated and treated with the compounds in a log2 titration for 72 hours. The optimal cell number for each cell type was determined and optical density (OD) was measured at 595 nm. Each data point was measured in quadruplicate. The assay was stopped after 72 hours and subsequently analyzed.
The OD-value of the plated cells before addition of the compounds was subtracted from all OD-values obtained after treatment. The percentage in relation to control proliferation was then calculated. Negative values therefore represent a count of fewer cells than were plated. The IC50 is given below in Table 1. Results are shown as a percentage in relation to the control proliferation. The IC50 were calculated using GraphPad Prism software (GraphPad Software, Inc.). Perhexiline results are depicted graphically in FIGS. 4A-4C and Erythromycin results in FIGS. 5A-5C. […]

[4] = test system: HDMEC; assay: Cell proliferation assay (crystal violet), HDMEC; type: cell-based; settings: 72 hours, OD 595 nm
Experimental: (§2) In order to further confirm the surprising results described above, the compounds were tested in a cell proliferation assay. Crystal violet was used to measure cell proliferation; this basic dye stains cell nuclei and provides a sensitive, rapid evaluation. Light absorption of unstained or destained cell layers is negligible, making it possible to perform cell number measurements in wells. Six cell types (HUVEC, HDMEC, SMC, Fibroblast, A375 and RENCA) were plated and treated with the compounds in a log2 titration for 72 hours. The optimal cell number for each cell type was determined and optical density (OD) was measured at 595 nm. Each data point was measured in quadruplicate. The assay was stopped after 72 hours and subsequently analyzed. The OD-value of the plated cells before addition of the compounds was subtracted from all OD-values obtained after treatment. The percentage in relation to control proliferation was then calculated. Negative values therefore represent a count of fewer cells than were plated. The IC50 is given below in Table 1. Results are shown as a percentage in relation to the control proliferation. The IC50 were calculated using GraphPad Prism software (GraphPad Software, Inc.). Perhexiline results are depicted graphically in FIGS. 4A-4C and Erythromycin results in FIGS. 5A-5C.

[5] = test system: SMC; assay: Cell proliferation assay (crystal violet), SMC; type: cell-based; settings: 72 hours, OD 595 nm
Experimental: as §2

[6] = test system: Fibroblast; assay: Cell proliferation assay (crystal violet), Fibroblast; type: cell-based; settings: 72 hours, OD 595 nm
Experimental: as §2

[7] = test system: A375; assay: Cell proliferation assay (crystal violet), A375; type: cell-based; settings: Homo sapiens, A-375, 72 hours, OD 595 nm
Experimental: as §2

[8] = test system: RENCA; assay: Cell proliferation assay (crystal violet), RENCA; type: cell-based; settings: 72 hours, OD 595 nm
Experimental: as §2

[9] = test system: B16F10 cells; assay: Cell viability of B16F10 cells; type: cell-based; settings: Mus musculus, B16-F10; after 24 and 48 hours incubation
Experimental: A cell viability assay based on cellular reduction of resazurin to the fluorescent product resorufin was performed. Viable cells can metabolize and reduce the dye, whereas dead cells rapidly lose the capacity to do so, making the increase in fluorescence directly proportional to the number of viable cells. The tested compounds were added in a log2 titration and viable cells were analyzed 24 hours after treatment. The fluorescence was determined at an excitation wavelength of 560 nm and an emission wavelength of 590 nm. The percentage of viable cells in relation to the untreated control proliferation was calculated. […] Perhexiline results are depicted graphically in FIGS. 6A-6C and Erythromycin results in FIGS. 7A-7C.
Through the two aforementioned assays it was determined that RENCA cells are more sensitive when treated with Perhexiline than the other cell types in the proliferation assay and in the viability assay. Therefore, the B16F10 cells were subsequently tested. The B16F10 tumor model, like the RENCA model, is an orthotopic tumor model.

[10] = test system: tumor size and vessel density; assay: Further studies with other CPT-1 inhibitors; settings: CPT-1 inhibitors at 10 and 100 μm; FIGS. 37A-40
[11] = test system: angiogenesis induced by vascular permeability factor/vascular endothelial growth factor; settings: Basu S et al., Nat Med 2001; cited from earlier work
[12] = test system: HUVEC sprouting; assay: 3D angiogenesis assay of stimulators (HUVEC sprouting alone, with VEGF, with PTK787/ZK222584); type: cell-based, human; settings: for HUVEC sprouting, compounds alone, compared to VEGF-induced sprouting: without addition of VEGF, 24 hours, basal sprouting subtracted, FIG. 22
Experimental: The HUVEC monolayer was treated for 6 hours with the compounds then the induced transcriptional changes, when compared to untreated HUVEC, were determined. The compounds were tested according to their ability to induce sprouting without addition of VEGF, in combination with VEGF and together with the VEGFR-2 inhibitor PTK787/ZK222584 (1 μM).

[13] = test system: HUVEC sprouting; assay: Spheroid-based 3D angiogenesis assay (IC50, alone or with VEGFR-2 inhibitor); type: cell-based, human; settings: determined in the spheroid-based 3D assay (FIG. 10); read-out: IC50 of the VEGFR-2 inhibitors
Excerpt: Therefore, the assay was applied to test compounds alone or in combination with a VEGFR-2 inhibitor to address changes in IC50. […] The VEGFR-2 inhibitor was applied at a concentration close to the IC50.

[14] = test system: Alexander cells (PLC/PRF/5) subcutaneous tumor; assay: Hepato-Cellular Carcinoma Model (HCC) in vivo study, subcutaneous Alexander cells; set-up: species or system NMRI nu/nu mice; settings: subcutaneous Alexander cell tumors in mice, about 21 days of treatment; FIGS. 28-30
Experimental: Monolayers of Alexander cells can be grown in 85% Dulbecco's Modified Eagle's Medium (DMEM), 15% Fetal Bovine Serum (FBS), 4 mM L-glutamine, 100 units penicillinG/ml, and 100 μg of streptomycin-sulfate/ml. The cells can be cultured in a humidified atmosphere of 90% air and 10% carbon dioxide at 37° C. Media may preferably be changed every 4 days.
Six to eight week old female NMRI^−nu/nu mice could be utilized. The Alexander cells can be implanted in the left flank region of the mice, for example, by injecting 4×10^7 cells in 0.2 ml aliquots into the subcutaneous space of the left flank using a 29 G needle syringe. After inoculation the appearing subcutaneous tumours can be measured by callipering and multiplying the distances of all three dimensions.
Therapy can be initiated after the tumor size has reached a volume of approximately 100 mm^3 (day 1 of the study), and continue for about 21 days.
As shown, Group 1 would serve as control, where the animals would receive no further treatment after injection of Alexander cells.
After approximately 21 days of treatment, mice could be sacrificed and tumors collected and optionally stored appropriately at −80° C. For histological examination of the tumor vasculature, cryosections of the tissues (thickness of 5-10 μm) can be taken. For visualization of the blood vessels, immunohistochemical staining for CD 31 (PECAM-1) can be performed, and vessels counted microscopically using a defined magnification (×200).

Structure (SMILES): CC[C@H]1OC(=O)[C@H](C)[C@@H](O[C@H]2C[C@@](C)(OC)[C@@H](O)[C@H](C)O2)[C@H](C)[C@@H](O[C@@H]2O[C@H](C)C[C@H](N(C)C)[C@H]2O)[C@](C)(O)C[C@@H](C)C(=O)[C@H](C)[C@@H](O)[C@]1(C)O [Erythromycin]
- EC sprouting intensity compared with VEGF control [1]: sprouting inhibition
- fibroblast scattering (invasion) effect [2]: no fibroblast invasion effect
- IC50 [3]: > 100 µM
- IC50 [4]: ~100 µM
- IC50 [5]: > 100 µM
- IC50 [6]: > 100 µM
- IC50 [7]: > 100 µM
- IC50 [8]: 56 µM
- IC50 [9]: 10 µM

Structure (SMILES): Clc1ccc(CSC(Cn2ccnc2)c2ccc(Cl)cc2Cl)cc1 (racemic) [Sulconazole, (±)-1-[2.4-dichloro-b-[(p-chlorobenzyl)-thio]-phenethyl]imidazole mononitrate]
- EC sprouting intensity compared with VEGF control [1]: angiogenesis stimulators

Structure (SMILES): Clc1ccc(COC(Cn2ccnc2)c2ccc(Cl)cc2Cl)c(Cl)c1 (centres unmarked) [Miconazole]
- EC sprouting intensity compared with VEGF control [1]: increased sprouting stimulation
- fibroblast scattering (invasion) effect [2]: no fibroblast invasion effect

Structure (SMILES): CCOC(=O)[C@@]1(CCCCCCOc2ccc(Cl)cc2)CO1 [Etomoxir]
- effects on tumor size and vessel density (as seen with Perhexiline) [10]: not seen

Structure (SMILES): Clc1ccc(COC(Cn2ccnc2)c2ccc(Cl)cc2Cl)cc1.O=[N+]([O-])O (centres unmarked) [Econazole, 1-[2-{(4-chloro-phenyl)methoxy}-2-(2,4-dichlorophenyl)ethyl]-1H-imidazole mononitrate]
- EC sprouting intensity compared with VEGF control [1]: angiogenesis stimulators

Structure (SMILES): CC(C)(COP(=O)(O)OP(=O)(O)OC[C@H]1O[C@@H](n2cnc3c(N)ncnc32)[C@H](O)[C@@H]1OP(=O)(O)O)[C@@H](O)C(=O)NCCC(=O)NCCSC(=O)CC(=O)O [Malonyl-CoA]
- effects on tumor size and vessel density (as seen with Perhexiline) [10]: not seen

Structure (SMILES): NCCc1ccc(O)c(O)c1 [Dopamine]
- effect on angiogenesis (literature) [11]: prevent angiogenesis

Structure (SMILES): CCN(CC)C(=O)N[C@H]1C=C2c3cccc4[nH]cc(c34)C[C@H]2N(C)C1 [Lisuride (S)(−)]
- EC sprouting intensity compared with VEGF control [1]: increased sprouting stimulation
- fibroblast scattering (invasion) effect [2]: no fibroblast invasion effect

Structure (SMILES): C#C[C@]1(O)CC[C@H]2[C@@H]3CCC4=Cc5oncc5C[C@]4(C)[C@H]3CC[C@@]21C [Danazol]
- EC sprouting intensity compared with VEGF control [1]: increased sprouting stimulation
- fibroblast scattering (invasion) effect [2]: no fibroblast invasion effect

Structure (SMILES): CC(C)C[C@H]1C(=O)N2CCC[C@H]2[C@]2(O)O[C@](NC(=O)[C@@H]3C=C4c5cccc6[nH]c(Br)c(c56)C[C@H]4N(C)C3)(C(C)C)C(=O)N12 [Bromocriptine, Bromocriptine mesylate]
- EC sprouting intensity compared with VEGF control [1]: angiogenesis stimulator
- HUVEC sprouting, compounds alone, compared to VEGF-induced sprouting [12]: stimulated sprouting in excess of the VEGF-induced sprouting
- effect on angiogenesis (literature) [11]: prevent angiogenesis

Structure (SMILES): Clc1ccc(Nc2nnc(Cc3ccncc3)c3ccccc23)cc1 [PTK787/ZK222584]
- IC50 [13]: 0.1 µM
- tumor growth compared to control [14]: reduced
- VEGF-induced sprouting ([12]; at a concentration of 1 μM): completely prevents VEGF-induced sprouting

Structure (SMILES): CCc1cc(Cl)c(OC)c(C(=O)NC[C@@H]2CCCN2CC)c1O [Eticlopride]
- HUVEC sprouting, compounds alone, compared to VEGF-induced sprouting [12]: stimulated sprouting in excess of the VEGF-induced sprouting
- effect on angiogenesis (literature) [11]: not effect on angiogenesis

Structure (SMILES): COc1ccc(CN2CCNCC2)c(OC)c1OC [Trimetazidine dihydrochloride]
- effects on tumor size and vessel density (as seen with Perhexiline) [10]: not seen
